Results: patent publication US12655465B2, “System for detecting and characterizing a microorganism” (Q-Linea AB, priority 2016, dated 2026)
In brackets after ≈: the same amount, converted by molar mass.

Columns and labels:
E. coli [1] = test: AST by flow cytometry type counting of individual bacteria (Aquila 400), MIC from differential growth; type: cell-based; settings: Aquila 400 counting; for MIC: Escherichia coli
Description: The sample was enriched for bacteria and at the same time the culture media was changed, in this case to Mueller-Hinton media (MH-media). E. coli bacteria were recovered via filtration through a 0.2 μm filter and the recovered bacteria were resuspended in MH-media to a concentration of approximately 10^8 CFU/ml in Müller Hinton broth before being diluted to approximately 10^6 CFU/ml in Müller Hinton Broth. Antibiotic solutions were prepared in a series of 2:1 serial dilutions in Müller Hinton broth at 10× test concentrations. The range of antibiotic concentrations was chosen based on identity of the bacteria and the antibiotic. As the microorganism identified in Example 1 was E. coli in this case the following antibiotics were selected for use in the antimicrobial susceptibility test: Ciprofloxacin, Piperacillin+Tazobactam, Cefotaxime, Ceftazidim, Meropenem and Gentamicin. A series of eight different concentrations was selected based on known clinical MIC values. Eight sample tubes containing 100 μl antibiotic solution at eight different concentrations and 800 μl Müller Hinton broth were prepared. One additional tube contains 900 μl Müller Hinton broth and no antibiotic as positive control. 100 μl bacterial suspension (10^6 CFU/ml) was added to all nine tubes. A negative control sample comprising 1000 μl Müller Hinton broth (i.e., no bacteria) is prepared as negative control. All tubes were incubated at 35° C. and samples were taken after 0, 4, 6 and 24 hours. Bacterial samples were prepared for counting as in Example 2. Bacterial AST profiles were determined using a flow cytometry based counting of individual bacteria in an Aquila 400™ instrument (Q-linea AB, Sweden). Aquila 400 analysis was performed using the alexa 488™ laser. It was evident from the analysis performed at different time points that 4 hours was sufficient for detecting differential bacterial growth at the different concentration of antibiotics and thus to determine antibiotic susceptibility. Shorter times have been shown in the literature so this is not unexpected. MIC values for each antibiotic at different time points and cut-off values were calculated based on the differential bacterial growth. Values obtained by this method compared favorably with previously reported clinical MIC values and are shown below.

E. coli [2] = test: MIC with Macrobroth dilution; type: cell-based; settings: reference method; for MIC: Escherichia coli
E. coli [3] = settings: determined by another lab; cited from earlier work
[4] = 4 h, cut-off 15%, 4 hours, read-out: MIC, 4 hours
[5] = 4 h, cut-off 20%, 4 hours, read-out: MIC, 4 hours
[6] = 6 h, cut-off 5%, 6 hours, read-out: MIC, 6 hours
[7] = 6 h, cut-off 10%, 6 hours, read-out: MIC, 6 hours
[8] = 6 h, cut-off 15%, 6 hours, read-out: MIC, 6 hours
[9] = 6 h, cut-off 20%, 6 hours, read-out: MIC, 6 hours
[10] = 24 h, cut-off 5%, 24 hours, read-out: MIC, 24 hours
[11] = 24 h, cut-off 10%, 24 hours, read-out: MIC, 24 hours
[12] = 24 h, cut-off 15%, 24 hours, read-out: MIC, 24 hours
[13] = 24 h, cut-off 20%, 24 hours, read-out: MIC, 24 hours
[14] = 4 h, cut-off 5%, 4 hours incubation at 35° C. in Müller Hinton broth, read-out: MIC, 4 hours
[15] = 4 h, cut-off 10%, 4 hours, read-out: MIC, 4 hours
[16] = cut-off 5%, 4 hours incubation at 35° C. in Müller Hinton broth

Row | Compound | MIC (E. coli [1]; [4]) [µg/mL] | MIC (E. coli [1]; [5]) [µg/mL] | MIC (E. coli [1]; [6]) [µg/mL] | MIC (E. coli [1]; [7]) [µg/mL] | MIC (E. coli [1]; [8]) [µg/mL] | MIC (E. coli [1]; [9]) [µg/mL] | MIC (E. coli [1]; [10]) [µg/mL] | MIC (E. coli [1]; [11]) [µg/mL] | MIC (E. coli [1]; [12]) [µg/mL] | MIC (E. coli [1]; [13]) [µg/mL] | MIC (E. coli [2]) [µg/mL] | MIC with E-test (E. coli [3]) [µg/mL] | MIC (E. coli [1]; [14]) [µg/mL] | MIC (E. coli [1]; [15]) [µg/mL] | MIC, 4 hours (E. coli [1]; [16]) [µg/mL] | MIC, 6 hours (E. coli [1]; cut-off 5%, 6 hours) [µg/mL] | MIC, 24 hours (E. coli [1]; cut-off 5%, 24 hours) [µg/mL] | MIC, 4 hours (E. coli [1]; cut-off 10%, 4 hours) [µg/mL] | MIC, 6 hours (E. coli [1]; cut-off 10%, 6 hours) [µg/mL] | MIC, 24 hours (E. coli [1]; cut-off 10%, 24 hours) [µg/mL] | other results
1 | CO/N=C(\C(=O)N[C@@H]1C(=O)N2C(C(=O)O)=C(COC(C)=O)CS[C@H]12)c1csc(N)n1 [Cefotaxime] | 0.06 (≈ 0.132 µM) | 0.06 (≈ 0.132 µM) | 0.06 (≈ 0.132 µM) | 0.06 (≈ 0.132 µM) | 0.03 (≈ 0.0659 µM) | 0.03 (≈ 0.0659 µM) | 0.125 (≈ 0.274 µM) | 0.125 (≈ 0.274 µM) | 0.06 (≈ 0.132 µM) | 0.06 (≈ 0.132 µM) | 0.125 (≈ 0.274 µM) | ≤ 0.5 | – | – | – | – | – | – | – | – | –
2 | O=C(O)c1cn(C2CC2)c2cc(N3CCNCC3)c(F)cc2c1=O [Ciprofloxacin] | 0.008 (≈ 0.0241 µM) | 0.008 (≈ 0.0241 µM) | 0.008 (≈ 0.0241 µM) | 0.008 (≈ 0.0241 µM) | 0.008 (≈ 0.0241 µM) | 0.004 (≈ 0.0121 µM) | 0.008 (≈ 0.0241 µM) | 0.008 (≈ 0.0241 µM) | 0.008 (≈ 0.0241 µM) | 0.008 (≈ 0.0241 µM) | 0.016 (≈ 0.0483 µM) | ≤ 0.03 | 0.016 (≈ 0.0483 µM) | 0.008 (≈ 0.0241 µM) | – | – | – | – | – | – | –
3 | CC(C)(O/N=C(\C(=O)N[C@@H]1C(=O)N2C(C(=O)[O-])=C(C[n+]3ccccc3)CS[C@H]12)c1csc(N)n1)C(=O)O [Ceftazidime] | 0.125 (≈ 0.229 µM) | 0.125 (≈ 0.229 µM) | 0.125 (≈ 0.229 µM) | 0.125 (≈ 0.229 µM) | 0.125 (≈ 0.229 µM) | 0.125 (≈ 0.229 µM) | 0.25 (≈ 0.457 µM) | 0.25 (≈ 0.457 µM) | 0.25 (≈ 0.457 µM) | 0.25 (≈ 0.457 µM) | 0.25 (≈ 0.457 µM) | ≤ 0.5 | 0.25 (≈ 0.457 µM) | 0.25 (≈ 0.457 µM) | – | – | – | – | – | – | –
4 | Piperacillin and Tazobactam | – | – | – | – | – | – | – | – | – | – | – | 2 | – | – | 4 | 4 | 4 | 4 | 4 | 4 | MIC, 4 hours (E. coli [1]; cut-off 15%, 4 hours): 4 µg/mL; MIC, 6 hours (E. coli [1]; cut-off 15%, 6 hours): 4 µg/mL; MIC, 24 hours (E. coli [1]; cut-off 15%, 24 hours): 4 µg/mL; MIC, 4 hours (E. coli [1]; cut-off 20%, 4 hours): 4 µg/mL; MIC, 6 hours (E. coli [1]; cut-off 20%, 6 hours): 2 µg/mL; MIC, 24 hours (E. coli [1]; cut-off 20%, 24 hours): 2 µg/mL; MIC with Macrobroth dilution (E. coli [2]): 4 to 8 µg/mL
5 | Gentamicin | – | – | – | – | – | – | – | – | – | – | – | 1 | – | – | 1 | 0.5 | 1 | 0.5 | 0.5 | 1 | MIC, 4 hours (E. coli [1]; cut-off 15%, 4 hours): 0.5 µg/mL; MIC, 6 hours (E. coli [1]; cut-off 15%, 6 hours): 0.5 µg/mL; MIC, 24 hours (E. coli [1]; cut-off 15%, 24 hours): 1 µg/mL; MIC, 4 hours (E. coli [1]; cut-off 20%, 4 hours): 0.5 µg/mL; MIC, 6 hours (E. coli [1]; cut-off 20%, 6 hours): 0.5 µg/mL; MIC, 24 hours (E. coli [1]; cut-off 20%, 24 hours): 1 µg/mL; MIC with Macrobroth dilution (E. coli [2]): 0.5 to 1 µg/mL
6 | C[C@@H](O)[C@H]1C(=O)N2C(C(=O)O)=C(S[C@@H]3CN[C@H](C(=O)N(C)C)C3)[C@H](C)[C@H]12 [Meropenem] | – | 0.5 (≈ 1.3 µM) | – | – | 0.5 (≈ 1.3 µM) | 0.25 (≈ 0.652 µM) | 0.5 (≈ 1.3 µM) | 0.5 (≈ 1.3 µM) | 0.25 (≈ 0.652 µM) | 0.125 (≈ 0.326 µM) | 0.25 to 0.5 (≈ 0.652 to 1.3 µM) | ≤ 0.25 | – | – | – | – | – | – | – | – | –
